# Results as given in patent US20080064048A1, “Methods for Selecting Proteins that are Readily Presented as Antigens on Dendritic Cells” (Medical and Biological Laboratories, Co., Ltd., priority 2004, published 2008).
# Where a SMILES comes first, the peptide text is derived from it. The star is where a group is joined. Cbz = O=C(OCc1ccccc1)*
# T1: TAP1 (mouse, UniProt P21958 1-724)
# T1 construct: Endogenous protein; also called TAP1/2
# T1 sequence (looked up): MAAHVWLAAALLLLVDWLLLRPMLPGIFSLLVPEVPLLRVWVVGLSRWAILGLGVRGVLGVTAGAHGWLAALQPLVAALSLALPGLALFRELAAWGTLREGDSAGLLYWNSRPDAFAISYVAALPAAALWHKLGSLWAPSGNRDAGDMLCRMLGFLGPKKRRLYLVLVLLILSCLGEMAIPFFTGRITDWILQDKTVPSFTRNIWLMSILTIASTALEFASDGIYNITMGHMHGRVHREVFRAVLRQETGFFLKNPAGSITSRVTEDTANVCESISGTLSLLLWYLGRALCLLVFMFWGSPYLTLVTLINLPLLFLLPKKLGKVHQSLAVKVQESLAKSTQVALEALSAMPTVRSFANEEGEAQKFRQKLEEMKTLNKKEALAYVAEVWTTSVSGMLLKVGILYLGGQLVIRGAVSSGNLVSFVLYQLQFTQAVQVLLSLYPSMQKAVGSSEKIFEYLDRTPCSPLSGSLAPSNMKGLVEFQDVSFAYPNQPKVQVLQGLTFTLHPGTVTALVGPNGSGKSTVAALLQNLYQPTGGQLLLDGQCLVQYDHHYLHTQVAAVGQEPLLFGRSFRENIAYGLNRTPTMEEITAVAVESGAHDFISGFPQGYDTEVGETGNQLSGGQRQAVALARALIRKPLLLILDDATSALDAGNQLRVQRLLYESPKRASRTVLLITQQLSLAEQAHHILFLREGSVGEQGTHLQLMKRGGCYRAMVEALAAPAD
# T2: TAP2 (mouse, UniProt P36371 1-702)
# T2 construct: Endogenous protein; also called TAP1/2
# T2 sequence (looked up): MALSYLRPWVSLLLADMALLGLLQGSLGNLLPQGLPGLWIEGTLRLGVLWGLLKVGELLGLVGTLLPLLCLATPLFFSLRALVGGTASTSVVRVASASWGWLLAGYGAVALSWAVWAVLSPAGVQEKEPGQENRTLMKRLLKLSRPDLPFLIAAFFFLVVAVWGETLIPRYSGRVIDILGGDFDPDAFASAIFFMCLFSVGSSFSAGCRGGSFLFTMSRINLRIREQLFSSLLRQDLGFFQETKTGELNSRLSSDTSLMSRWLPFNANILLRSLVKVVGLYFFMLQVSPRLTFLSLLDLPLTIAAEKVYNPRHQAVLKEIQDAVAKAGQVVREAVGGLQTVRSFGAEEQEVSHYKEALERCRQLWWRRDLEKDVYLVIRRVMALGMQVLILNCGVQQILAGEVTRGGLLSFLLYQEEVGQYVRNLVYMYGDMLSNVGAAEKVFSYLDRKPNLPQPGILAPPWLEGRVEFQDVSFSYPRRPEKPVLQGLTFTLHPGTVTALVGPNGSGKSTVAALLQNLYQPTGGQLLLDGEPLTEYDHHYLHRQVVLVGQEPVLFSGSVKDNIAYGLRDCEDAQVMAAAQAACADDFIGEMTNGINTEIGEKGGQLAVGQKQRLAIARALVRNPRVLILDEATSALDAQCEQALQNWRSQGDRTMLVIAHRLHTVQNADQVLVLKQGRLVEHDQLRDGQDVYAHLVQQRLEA
# Assays:
# [1] = system: DC2.4 cells; assay: Pulse-chase degradation of cell-bound bOVA (SA beads, SDS-PAGE, Western blot); assay type: cell-based, mouse; conditions: for effect of inhibitor on decrease (degradation) of cell-bound bOVA: DC2.4, bOVA 1 h pulse, chase up to 4 h, MG-132 10 μM, lactacystin 2 μM, NH4Cl 50 mM; for effect of ERAD inhibition on degradation of accumulated bOVA: DC2.4, thapsigargin 300 nM, tunicamycin 2 μg
# Experimental: Triton X-100 was used to lyse membranes. […] DC2.4 cells were pulsed with bOVA and chased. bOVA was recovered using SA beads, then separated by SDS-PAGE followed by Western blotting using SA-HRP Ctl: a control not containing inhibitors. […] Asterisks in the left panel indicate non-specific binding with SA-HRP.
# Next, DC2.4 cells were incubated with bOVA for one hour, and this was then chased for up to four hours. Cell-bound bOVA was recovered from total cell lysates by streptavidin-agarose and separated by SDS-PAGE.
# Depletion of Ca^2+ in the ER is known to inhibit ERAD. Thapsigargin (Tg) is known to decrease the Ca^2+ concentration in the ER lumen by binding to the ER membrane and functioning as an ionophore and to inhibit ERA D. Thus, in the presence of Tg, bOVA degradation by ERAD is predicted to be suppressed. DC2.4 cells were pulsed with bOVA in the presence of MG-132, then washed with PBS or with PBS containing 1 mM EGTA, and then chased for four hours.
# [2] = system: OT-I CD8+ T cells; assay: Antigen presentation level: IL-2 production by OT-I CD8+ T cells (ELISA); assay type: cell-based, mouse; conditions: for effect of proteasome inhibitor on stimulation by OVA: DC2.4, OVA 250 μg/mL; for effect of proteasome inhibitor on stimulation by OVA / effect of proteasome inhibitor on stimulation by SIINFEKL peptide: lactastatin 10 μM, MG-132 25 μM; for effect of proteasome inhibitor on stimulation by SIINFEKL peptide: DC2.4, SIINFEKL 10 ng/mL
# Excerpt: Whether knock-down of cellular components involved in ERAD decreases the cross-presentation of exogenous OVA antigen was examined using a system for evaluating the level of antigen presentation, which uses naive CD8^+ T cells from OT-I mice and DC2.4 cells. The DC2.4 cells used as a model of dendritic cells are of the H-2 Kb mouse MHC class I haplotype. OT-I (H-2 Kb) mice are transgenic mice expressing a T cell receptor (TCRα and β) that recognizes an antigenic peptide (SIINFEKL) (SEQ ID NO: 15) derived from OVA presented on the H-2 Kb molecules. The CD8^+ cells of OT-I mice are activated when they recognize OVA peptides presented by BMDCs derived from H-2 Kb mice or by DC2.4 cells. When OVA or bOVA is incubated with and affixed onto DC2.4 cells and the cells are further incubated with naive CD8^+ T cells of OT-I mice, the amount of IL-2 produced by OT-I CD8^+ T cells serves as an index of T-cell stimulation as a result of OVA antigen presented by DC2.4 cells.
# Parental or knocked-down DC2.4 cells were pre-incubated in a culture medium supplemented with 50 μg mL^−1 polymyxin B for 30 minutes in the presence or absence of lactacystin or MG-132, and incubated with OVA (250 μg mL^−1) or SIINFEKL (SEQ ID NO: 15) peptides (10 ng mL^−1) for six hours. The cells were washed, fixed with 1% paraformaldehyde, and aliquoted into microtiter plates (5×10^4 per well). 5×10^4 CD8^+ T cells purified from splenocytes of OT-1 mice using magnetic beads were added to each well and after a 24-hour incubation, the IL-2 secretion was measured by ELISA (BD Biosciences) in triplicate. […]
# [3] = system: OT-II CD4+ T cells; assay: MHC class II antigen presentation: IL-2 production by OT-II CD4+ T cells; assay type: cell-based, mouse
# Experimental: DC2.4 cells pretreated in the presence of NH4Cl were cultured with OVA, and then the stimulation of OT-I CD8^+ T cells in response to MHC […] presentation (circles) and stimulation of OT-II CD4^+ T cells in response to MHC class II antigen presentation (triangles) was determined by measuring IL-2 production levels. IL-2 production level in the presence of NH4Cl was expressed as a ratio relative to the control (IL-2 production was 700 pg/mL relative to OT-I, and 20 pg/mL relative to OT-II).
# [4] = biological target: OVA-derived antigenic peptide SIINFEKL presented on H-2 Kb on DC2.4 cells (chicken; mouse) (UniProt P01887); assay: cell-based or functional assay
# [5] = biological target: T1, TAP1; assay: co-immunoprecipitation with anti-TAP1 from DC2.4 lysate, SA-HRP blot
# Experimental: (§1) DC2.4 cells were incubated with bOVA and subjected to co-immunoprecipitation with anti-Sec61α. bOVA was added at 2.5 mg mL⁻¹ to cell lysates before immunoprecipitation (the two left-hand lanes in each panel). After SDS-PAGE, blotting was performed using SA-HRP and anti-Sec61α antibody.
# (§2) 2×10⁷ DC2.4 or BMDC cells were cultured for four hours in a medium containing 10 μM MG-132 in the presence of bOVA at 250 μg mL⁻¹. Cells were lysed in 20 mM HEPES pH7.6 containing 1% digitonin and protease inhibitors to collect biotin-labeled samples. The samples were cleared of impurities in advance using protein G sepharose (Amersham Pharmacia Biotech), and after incubation with antibodies for precipitation (anti-Sec61β, anti Sec61α, anti-VCP, anti-BiP, anti-PDI, anti-calreticulin, anti-TAP1, and anti-TAP2), the immunoprecipitates were collected using protein G. When chicken anti-CHIP antibody was used, immunoprecipitates were collected using a rabbit anti-IgY column (a person, MBL). The precipitated samples were analyzed by SDS-PAGE and Western blotting.
# [6] = biological target: T2, TAP2; assay: co-immunoprecipitation with anti-TAP2 from DC2.4 lysate, SA-HRP blot
# Experimental: as §1, §2
# [7] = DC2.4 pretreated with NH4Cl, cultured with OVA
# [8] = control without NH4Cl, DC2.4 cultured with OVA
molecule,measurement,setting,value
"CC(=O)N[C@@H](CSC(=O)[C@]1([C@@H](O)C(C)C)NC(=O)[C@H](C)[C@@H]1O)C(=O)O [lactacystin, reference compound]",effect of inhibitor on decrease (degradation) of cell-bound bOVA,[1],blocked
same,effect of proteasome inhibitor on stimulation by OVA,[2],suppressed
same,effect of proteasome inhibitor on stimulation by SIINFEKL peptide,[2],did not suppress
tunicamycin,effect of ERAD inhibition on degradation of accumulated bOVA,[1],inhibited
"Cl.N [NH4Cl, Ammonium chloride, reference compound]",effect of inhibitor on decrease (degradation) of cell-bound bOVA,[1],did not significantly affect
same,effect on presentation of the OVA antigen with MHC class to OT-I CD8+ T cells,[2]; [7],did not reduce
same,effect on presentation of the OVA antigen with MHC class II to OT-II CD4+ cells,[3]; [7],inhibited
"CC(C)C[C@@H](C=O)NC(=O)[C@H](CC(C)C)NC(=O)[C@H](CC(C)C)NC(=O)OCc1ccccc1 [MG-132, reference compound] (Cbz-Leu-Leu-Leu-aldehyde)",effect of inhibitor on decrease (degradation) of cell-bound bOVA,[1],blocked
same,effect of proteasome inhibitor on stimulation by OVA,[2],suppressed
same,effect of proteasome inhibitor on stimulation by SIINFEKL peptide,[2],did not suppress
OT-I T cell receptor (TCRα and β) on CD8+ T cells of OT-I mice,IL-2 production level,[4],700 pg/mL
C/C=C(/C)C(=O)O[C@H]1C(C)=C2[C@H]([C@@H]1OC(=O)CCCCCCC)[C@@](C)(OC(C)=O)C[C@H](OC(=O)CCC)[C@@]1(O)[C@H]2OC(=O)[C@@]1(C)O [Thapsigargin],effect of ERAD inhibition on degradation of accumulated bOVA,[1],inhibited
"biotin-labeled chicken ovalbumin (bOVA) (other, UniProt P01012 2-386, looked up, biotin-labeled (sites not given), Exogenous antigen added to mouse dendritic cells) GSIGAASMEFCFDVFKELKVHHANENIFYCPIAIMSALAMVYLGAKDSTRTQINKVVRFDKLPGFGDSIEAQCGTSVNVHSSLRDILNQITKPNDVYSFSLASRLYAEERYPILPEYLQCVKELYRGGLEPINFQTAADQARELINSWVESQTNGIIRNVLQPSSVDSQTAMVLVNAIVFKGLWEKAFKDEDTQAMPFRVTEQESKPVQMMYQIGLFRVASMASEKMKILELPFASGTMSMLVLLPDEVSGLEQLESIINFEKLTEWTSSNVMEERKIKVYLPRMKMEEKYNLTSVLMAMGITDVFSSSANLSGISSAESLKISQAVHAAHAEINEAGREVVGSAEAGVDAASVSEEFRADHPFLFCIKHIATNAVLFFGRCVSP",binding result,[5],no binding
same,binding result,[6],no binding
"Chicken ovalbumin (protein, Chicken ovalbumin used as an antigen model) GSIGAASMEFCFDVFKELKVHHANENIFYCPIAIMSALAMVYLGAKDSTRTQINKVVRFDKLPGFGDSIEAQCGTSVNVHSSLRDILNQITKPNDVYSFSLASRLYAEERYPILPEYLQCVKELYRGGLEPINFQTAADQARELINSWVESQTNGIIRNVLQPSSVDSQTAMVLVNAIVFKGLWEKAFKDEDTQAMPFRVTEQESKPVQMMYQIGLFRVASMASEKMKILELPFASGTMSMLVLLPDEVSGLEQLESIINFEKLTEWTSSNVMEERKIKVYLPRMKMEEKYNLTSVLMAMGITDVFSSSANLSGISSAESLKISQAVHAAHAEINEAGREVVGSAEAGVDAASVSEEFRADHPFLFCIKHIATNAVLFFGRCVSP",antigenicity for stimulation of CD8+ OT-I T cells (IL-2 production),"[2]; DC2.4, dose-response OVA vs bOVA",equally antigenic
same,OVA stimulation of OT-I CD8+ T cells by knocked-down DC2.4 cells,"[2]; Sec61 (S22), VCP (V41) or CHIP (C4) knocked down",reduction in OVA stimulation
same,IL-2 production by OT-I CD8+ T cells,[2]; [8],700 pg/mL
same,IL-2 production by OT-II CD4+ T cells (control),[3]; [8],20 pg/mL
"OVA-KDEL: OVA with KDEL (Lys-Asp-Glu-Leu) added to its C-terminus, SEQ ID NO: 14 (protein) MGSIGAASMEFCFDVFKELKVHHANENIFYCPIAIMSALAMVYLGAKDSTRTQINKVVRFDKLPGFGDSIEAQCGTSVNVHSSLRDILNQITKPNDVYSFSLASRLYAEERYPILPEYLQCVKELYRGGLEPINFQTAADQARELINSWVESQTNGIIRNVLQPSSVDSQTAMVLVNAIVFKGLWEKAFKDEDTQAMPFRVTEQESKPVQMMYQIGLFRVASMASEKMKILELPFASGTMSMLVLLPDEVSGLEQLESIINFEKLTEWTSSNVMEERKIKVYLPRMKMEEKYNLTSVLMAMGITDVFSSSANLSGISSAESLKISQAVHAAHAEINEAGREVVGSAEAGVDAASVSEEFRADHPFLFCIKHIATNAVLFFGRCVSPASAEDYEYPSRSNGTKNNTSQASKDEL",antigen presentation level compared with OVA,"[2]; DC2.4, data not shown",stronger
